Read-outs that look alike come from different tables or passages of the source.
Target: T1, human EphB4 receptor (Homo sapiens, UniProt P54760)
T1 construct: made in house; host or cells: Sf9 or Sf21 (baculovirus)
T1 sequence (P54760 566-987): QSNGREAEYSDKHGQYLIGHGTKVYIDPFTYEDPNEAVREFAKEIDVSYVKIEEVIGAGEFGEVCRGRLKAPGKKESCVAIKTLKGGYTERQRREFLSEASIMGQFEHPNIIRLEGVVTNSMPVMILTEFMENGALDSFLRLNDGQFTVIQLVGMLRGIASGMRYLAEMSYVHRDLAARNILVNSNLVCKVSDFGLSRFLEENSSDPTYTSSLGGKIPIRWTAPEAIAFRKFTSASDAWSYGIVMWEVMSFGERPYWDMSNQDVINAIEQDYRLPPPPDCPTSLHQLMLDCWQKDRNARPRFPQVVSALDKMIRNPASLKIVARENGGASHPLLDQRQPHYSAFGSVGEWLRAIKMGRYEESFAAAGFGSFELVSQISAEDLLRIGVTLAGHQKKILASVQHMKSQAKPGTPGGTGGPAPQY
Test: EphB4 kinase assay, GST-EphB, 33P incorporation into poly(Glu,Tyr)
Format: biochemical
Excerpt: EphB4: Production and measure of enzymatic activity: Generation of Bac-to-Bac™ (Initrogen Life Technologies, Basel, Switzerland) GST-fusion expression vectors: Entire cytoplasmatic coding regions of the EphB-class are amplified by PCR from cDNA libraries derived from human placenta or brain, respectively. Recombinant baculovirus are generated that express the amino acid region 566-987 of the human EphB4 receptor (SwissProt Database, Accession No. P54760). GST sequence is cloned into pFastBac1® vector (Invitrogen Life Technologies, Basel, Switzerland) and PCR amplified. cDNAs encoding EphB4-receptor domains, respectively, are cloned in frame 3′prime to the GST sequence into this modified FastBac1 vector to generate pBac-to-Bac™ donor vectors. Single colonies arising from the transformation are inoculated to give overnight cultures for small scale plasmid preparation. […] By automated sequencing the inserts and approximately 50 bp of the flanking vector sequences are confirmed on both strands. Production of viruses: Viruses for each of the kinases are made according to the protocol supplied by GIBCO if not stated otherwise. In brief, transfer vectors containing the kinase domains are transfected into the DH10Bac cell line (GIBCO) and plated on selective agar plates. Colonies without insertion of the fusion sequence into the viral genome (carried by the bacteria) are blue. Single white colonies are picked and viral DNA (bacmid) isolated from the bacteria by standard plasmid purification procedures. Sf9 cells or Sf21 cells are then transfected in 25 cm2 flasks with the viral DNA using Cellfectin reagent according to the protocol. Purification of GST-tagged kinases: The centrifuged cell lysate is loaded onto a 2 mL glutathione-sepharose column (Pharmacia) and washed three times with 10 mL of 25 mM Tris-HCl, pH 7.5, 2 mM EDTA, 1 mM DTT, 200 mM NaCl. The GST-tagged proteins are then eluted by 10 applications (1 mL each) of 25 mM Tris-HCl, pH 7.5, 10 mM reduced-glutathione, 100 mM NaCl, 1 mM DTT, 10% Glycerol and stored at −70° C. Protein kinase assays: The activities of protein kinases are assayed in the presence or absence of inhibitors, by measuring the incorporation of 33P from [γ33P]ATP into a polymer of glutamic acid and tyrosine (poly(Glu,Tyr)) as a substrate. The kinase assays with purified GST-EphB (30 ng) are carried out for 15-30 min at ambient temperature in a final volume of 30 μL containing 20 mM Tris.HCl, pH 7.5, 10 mM MgCl2, 3-50 mM MnCl2, 0.01 mM Na3VO4, 1% DMSO, 1 mM DTT, 3 μg/mL poly(Glu,Tyr) 4:1 (Sigma; St. Louis, Mo., USA) and 2.0-3.0 μM ATP (γ-[33P]-ATP 0.1 μCi). The assay is terminated by the addition of 20 μL of 125 mM EDTA. Subsequently, 40 μl of the reaction mixture are transferred onto Immobilon-PVDF membrane (Millipore, Bedford, Mass., USA) previously soaked for 5 min with methanol, rinsed with water, then soaked for 5 min with 0.5% H3PO4 and mounted on vacuum manifold with disconnected vacuum source. After spotting all samples, vacuum is connected and each well rinsed with 200 μl 0.5% H3PO4. Membranes are removed and washed 4× on a shaker with 1.0% H3PO4, once with ethanol. Membranes are counted after drying at ambient temperature, mounting in Packard TopCount96-well frame, and addition of 10 μL/well of Microscint™ (Packard). IC50 values are calculated by linear regression analysis of the percentage inhibition of each compound in duplicate, at four concentrations (usually 0.01, 0.1, 1 and 10 μM). One unit of protein kinase activity is defined as 1 nmole of 33P ATP transferred from [γ33P] ATP to the substrate protein per minute per mg of protein at 37° C. Compounds of formula I show EphB4 inhibition down to 10 nM, preferably IC50 values between 0.01-1.0 μM.

[1] = Table 4, read-out: EphB4, activity (IC50 for kinase inhibition)
[2] = Table 5, read-out: EphB4, IC50 class

Compound | IC50 [1] [µM] | IC50 [2] [µM]
CN1CCN(c2ccc(-c3cnn4c(N)c(-c5cccc(O)c5)cnc34)cc2)CC1 [Example 1, 3-{7-Amino-3-[4-(4-methyl-piperazin-1-yl)-phenyl]-pyrazolo[1,5-a]pyrimidin-6-yl}-phenol] | < 10 | 
CN1CCN(c2cccc(-c3cnn4c(N)c(-c5cccc(O)c5)cnc34)c2)CC1 [Example 29, 3-{7-Amino-3-[3-(4-methyl-piperazin-1-yl)-phenyl]-pyrazolo[1,5-a]pyrimidin-6-yl}-phenol] | < 10 | 
Nc1c(-c2cccc(O)c2)cnc2c(-c3cccnc3)cnn12 [Example 46, 3-[7-Amino-3-pyridin-3-yl-pyrazolo[1,5-a]pyrimidin-6-yl]-phenol] | < 10 | 
COc1ccccc1-c1cnn2c(N)c(-c3cccc(O)c3)cnc12 [Example 48, 3-[7-Amino-3-(2-methoxy-phenyl)-pyrazolo[1,5-a]pyrimidin-6-yl]-phenol] | < 10 | 
COc1cccc(-c2cnn3c(N)c(-c4cccc(O)c4)cnc23)c1 [Example 60, 3-[7-Amino-3-(3-methoxy-phenyl)-pyrazolo[1,5-a]pyrimidin-6-yl]-phenol] | < 10 | 
Cc1nc2c(-c3cccc(N4CCN(C)CC4)c3)cnn2c(N)c1-c1ccc(F)c(Cl)c1 [Example 82, 6-(3-Chloro-4-fluoro-phenyl)-5-methyl-3-[3-(4-methyl-piperazin-1-yl)-phenyl]pyrazolo[1,5-a]pyrimidin-7-ylamine] |  | < 1
Cc1nc2c(-c3ccc(N4CCN(C)CC4)cc3)cnn2c(N)c1-c1ccc(F)c(Cl)c1 [Example 83, 6-(3-Chloro-4-fluoro-phenyl)-5-methyl-3-[4-(4-methyl-piperazin-1-yl)-phenyl]-pyrazolo[1,5-a]pyrimidin-7-ylamine] |  | < 1
Cc1nc2c(-c3cccc(N4CCN(C)CC4)c3)cnn2c(N)c1-c1cccc(Br)c1 [Example 84, 6-(3-Bromo-phenyl)-5-methyl-3-[3-(4-methyl-piperazin-1-yl)-phenyl]-pyrazolo[1,5-a]pyrimidin-7-ylamine] |  | < 1
CN1CCN(c2cccc(-c3cnn4c(N)c(Cc5cccc(Br)c5)cnc34)c2)CC1 [Example 85, 6-(3-Bromo-benzyl)-3-[3-(4-methyl-piperazin-1-yl)-phenyl]pyrazolo[1,5-a]pyrimidin-7-ylamine] |  | 1 to 10
CN1CCN(c2cccc(-c3cnn4c(N)c(-c5cccc(Br)c5)cnc34)c2)CC1 [Example 86, 6-(3-Bromo-phenyl)-3-[3-(4-methyl-piperazin-1-yl)-phenyl]-pyrazolo[1,5-a]pyrimidin-7-ylamine] |  | 1 to 10
COc1ccc(-c2cnn3c(N)c(-c4cccc(Cl)c4)c(C)nc23)cc1 [Example 88, 6-(3-Chloro-phenyl)-3-(4-methoxy-phenyl)-5-methyl-pyrazolo[1,5-a]pyrimidin-7-ylamine] |  | < 1
Cc1nc2c(-c3cccc(N4C[C@@H](C)O[C@@H](C)C4)c3)cnn2c(N)c1-c1cccc(Cl)c1 [Example 89, 6-(3-Chloro-phenyl)-3-[3-((2R,6S)-2,6-dimethyl-morpholin-4-yl)-phenyl]-5-methyl-pyrazolo[1,5-a]pyrimidin-7-ylamine] |  | < 1
Cc1nc2c(-c3cccc(N4CCN(CCO)CC4)c3)cnn2c(N)c1-c1cccc(Cl)c1 [Example 90, 2-(4-{3-[7-Amino-6-(3-chloro-phenyl)-5-methyl-pyrazolo[1,5-a]pyrimidin-3-yl]-phenyl}-piperazin-1-yl)-ethanol] |  | < 1
CN1CCN(c2cccc(-c3cnn4c(N)c(Cc5ccccc5)cnc34)c2)CC1 [Example 91, 6-Benzyl-3-[3-(4-methyl-piperazin-1-yl)-phenyl]-pyrazolo[1,5-a]pyrimidin-7-ylamine] |  | < 1
COc1ccc(-c2cnn3c(N)c(-c4cccc(Cl)c4)c(CF)nc23)cc1OC [Example 92, 6-(3-Chloro-phenyl)-3-(3,4-dimethoxy-phenyl)-5-fluoromethyl-pyrazolo[1,5-a]pyrimidin-7-ylamine] |  | < 1
COc1ccc(-c2cnn3c(N)c(-c4cccc(Cl)c4)c(C)nc23)cc1OC [Example 93, 6-(3-Chloro-phenyl)-3-(3,4-dimethoxy-phenyl)-5-methyl-pyrazolo[1,5-a]pyrimidin-7-ylamine] |  | < 1

Now from value to molecule:

IC50 [1] [µM] | IC50 [2] [µM] | Compound
 | < 1 | Cc1nc2c(-c3cccc(N4CCN(C)CC4)c3)cnn2c(N)c1-c1cccc(Cl)c1 [Example 72, 6-(3-Chloro-phenyl)-5-methyl-3-[3-(4-methyl-piperazin-1-yl)-phenyl]-pyrazolo[1,5-a]pyrimidin-7-ylamine]
 | < 1 | Cc1nc2c(-c3ccc(N4CCN(C)CC4)cc3)cnn2c(N)c1-c1cccc(Cl)c1 [Example 73, 6-(3-Chloro-phenyl)-5-methyl-3-[4-(4-methyl-piperazin-1-yl)-phenyl]-pyrazolo[1,5-a]pyrimidin-7-ylamine]
 | < 1 | COc1cc(N2CCN(C)CC2)ccc1-c1cnn2c(N)c(-c3cccc(Cl)c3)c(C)nc12 [Example 75, 6-(3-Chloro-phenyl)-3-[2-methoxy-4-(4-methyl-piperazin-1-yl)-phenyl]-5-methyl-pyrazolo[1,5-a]pyrimidin-7-ylamine]
 | < 1 | COc1cc(N2CCN(C)CC2)ccc1-c1cnn2c(N)c(-c3cccc(O)c3)cnc12 [Example 76, 3-{7-Amino-3-[2-methoxy-4-(4-methyl-piperazin-1-yl)-phenyl]-pyrazolo[1,5-a]pyrimidin-6-yl}-phenol]
 | < 1 | CN1CCN(c2ccc(-c3cnn4c(N)c(-c5ccccc5Cl)cnc34)cc2)CC1 [Example 77, 6-(2-Chloro-phenyl)-3-[4-(4-methyl-piperazin-1-yl)-phenyl]-pyrazolo[1,5-a]pyrimidin-7-ylamine]
 | < 1 | CN1CCN(c2cccc(-c3cnn4c(N)c(-c5ccccc5Cl)cnc34)c2)CC1 [Example 78, 6-(2-Chloro-phenyl)-3-[3-(4-methyl-piperazin-1-yl)-phenyl]-pyrazolo[1,5-a]pyrimidin-7-ylamine]
 | < 1 | Cc1nc2c(-c3ccc(N4CCN(C)CC4)cc3)cnn2c(N)c1-c1ccc(F)cc1 [Example 79, 6-(4-Fluoro-phenyl)-5-methyl-3-[4-(4-methyl-piperazin-1-yl)-phenyl]-pyrazolo[1,5-a]pyrimidin-7-ylamine]
 | < 1 | Cc1nc2c(-c3cccc(N4CCN(C)CC4)c3)cnn2c(N)c1-c1ccc(F)cc1 [Example 80, 6-(4-Fluoro-phenyl)-5-methyl-3-[3-(4-methyl-piperazin-1-yl)-phenyl]-pyrazolo[1,5-a]pyrimidin-7-ylamine]
 | < 1 | Cc1nc2c(-c3cccc(N4CCN(C5CCN(C)CC5)CC4)c3)cnn2c(N)c1-c1cccc(Cl)c1 [Example 81, 6-(3-Chloro-phenyl)-5-methyl-3-{3-[4-(1-methyl-piperidin-4-yl)-piperazin-1-yl]-phenyl}-pyrazolo[1,5-a]pyrimidin-7-ylamine]

Reference: patent US20090099167A1, “Organic compounds” (Novartis Institutes for Biomedical Research, priority 2004, published 2009)
